Assay results published in ChEMBL document CHEMBL1149235, “Tetrahydronaphthalene-derived amino alcohols and amino ketones as potent and selective inhibitors of the delayed rectifier potassium current IKs” (Bioorg Med Chem Lett, 2004).

Assays:
[1] = Inhibitory activity against slow component of delayed rectifier potassium current IKs in guinea pig ventricular myocytes; format: cell-based, Cavia porcellus, Ventricular myocyte
[2] = Inhibition of rapid component of delayed rectifier potassium current IKr in guinea pig ventricular myocytes; format: cell-based, Cavia porcellus, Ventricular myocyte
[3] = Cavia porcellus, Ventricular myocyte

| IC50 [1, 3] [nM] | IC50 ([1]; ventricular myocyte) [nM] | Structure (SMILES) | also measured |
| --- | --- | --- | --- |
| 1500 | – | O=C1c2ccc(Oc3ccccc3)cc2CCC1CCN1CCC(c2ccccc2)CC1 (stereo unspecified) | – |
| 2400 | – | O=C1c2ccc(-c3ccccc3)cc2CCC1CCN1CCC(c2ccccc2)CC1 (stereo unspecified) | – |
| 5000 | – | COc1ccc2c(c1)CCC(CN1CCC(c3ccccc3)CC1)C2=O (stereo unspecified) | IC50 [2, 3]: 4000 nM |
| 470 | – | O=C1c2ccc(OCc3cccc(-c4ccccc4)c3)cc2CCC1CCN1CCC(c2ccccc2)CC1 (stereo unspecified) | – |
| 1300 | – | O=C1c2ccc(OCc3ccccn3)cc2CCC1CCN1CCC(c2ccccc2)CC1 (stereo unspecified) | – |
| 390 | – | O[C@H]1c2ccc(OCc3ccccc3-c3ccccc3)cc2CC[C@H]1CCN1CCC(c2ccccc2)CC1 | – |
| 380 | – | O=C1c2ccc(OCc3cccnc3)cc2CCC1CCN1CCC(c2ccccc2)CC1 (stereo unspecified) | – |
| 1000 | – | O=C1c2ccc(OCc3ccc(-c4ccccc4)cc3)cc2CCC1CCN1CCC(c2ccccc2)CC1 (stereo unspecified) | – |
| 200 | – | O=C1c2ccc(OCc3ccncc3)cc2CCC1CCN1CCC(c2ccccc2)CC1 (stereo unspecified) | – |
| > 30000 | – | O=C1c2ccc(OCc3ccccc3)cc2CCC1CC(=O)N1CCC(c2ccccc2)CC1 (stereo unspecified) | – |
| – | 340 | O=C1c2ccc(OCc3ccccc3-c3ccccc3)cc2CCC1CCN1CCC(c2ccccc2)CC1 (single isomer, unassigned) | IC50 ([2]; ventricular myocyte): 1600 nM |
| – | 1300 | OC1c2ccc(OCc3ccccc3)cc2CCC1CCN1CCC(c2ccccc2)CC1 (single isomer, unassigned) | IC50 ([2]; ventricular myocyte): 110 nM |
| – | 1700 | COc1ccc2c(c1)CCC(CCN1CCC(c3ccccc3)CC1)C2=O (single isomer, unassigned) | – |
| – | 1000 | O[C@@H]1c2ccc(OCc3ccccc3-c3ccccc3)cc2CC[C@H]1CCN1CCC(c2ccccc2)CC1 (stereo in doubt) | – |
| – | 150 | OC1c2ccc(OCc3ccccc3)cc2CCC1CCN1CCC(c2ccccc2)CC1 (stereo in doubt; 7b) | IC50 [2, 3]: 170 nM |
| – | 400 | COc1ccc2c(c1)CCC(CCN1CCC(c3ccccc3)CC1)C2=O (stereo in doubt; 8a) | IC50 [2, 3]: 1700 nM |
| – | 69 | O=C1c2ccc(OCc3ccccc3)cc2CCC1CCN1CCC(c2ccccc2)CC1 (stereo in doubt; 8b) | IC50 ([2]; ventricular myocyte): 160 nM |
| – | 30 | O=C1c2ccc(OCc3ccccc3-c3ccccc3)cc2CCC1CCN1CCC(c2ccccc2)CC1 (stereo in doubt; 10d) | IC50 ([2]; ventricular myocyte): 260 nM |
| – | 37 | O[C@@H]1c2ccc(OCc3ccccc3-c3ccccc3)cc2CC[C@H]1CCN1CCC(c2ccccc2)CC1 (stereo in doubt; 14a) | – |
